According to patent publication US5594012A, “Amino acid derivatives and anti-active oxygen agents” (Ajinomoto Co., Inc., priority 1992, dated 1997):

Experiments:
UV absorptive activities = assay type: physicochemical; conditions: 100 μM in ethanol (water or DMSO added if not soluble)
Method: Test for UV Absorptive Activities
A solution of each of the test compounds shown in Table 10 below in ethanol was prepared for the final concentration to be 100 μM. If test compounds were not soluble in ethanol alone, water or DMSO was added.
The absorption spectrum of each sample was determined using a spectrophotometer "Model 320" (manufactured by Hitachi).

[1] = test system: lipid peroxidation in homogenate of murine swiss 3T3 cells; assay: Inhibitory effects on UV-induced lipid peroxidation (homogenate of murine swiss 3T3 cells); assay type: biochemical; conditions: 1 mM test compound; UVB 0.4 mW/cm^2, 90 min; pH 7.2 to 7.8; TBA, 535 nm
Method: Test for Inhibitory Effects on UV-induced Lipid Peroxidation
The test was carried out on the basis of the methods described in Biochim. Biophys. […] Namely, 12 μl of an aqueous sodium hydroxide solution of each of the test compounds shown in Table 5 below was added to 1.2 ml of a homogenate of murine swiss 3T3 cells (i.e. a kind of murine skin cells) prepared by a conventional method in 20 mM phosphate buffer (protein content: 1.5 to 1.8 mg/ml). The final concentration of the test compounds was adjusted to be 1 mM and the pH of the solution was adjusted to 7.2 to 7.8. If test compounds were not soluble in an aqueous sodium hydroxide solution, they were dissolved in N,N-dimethyl sulfoxide (DMSO).
This solution (1.1 ml) was irradiated with UV rays (0.4 mW/cm^2, 90 min.) using a UVB lamp "EB-280C/J" (manufactured by Spectronics). To an aliquot (1.0 ml) of this solution were successively added 0.2 ml of an aqueous solution of sodium dodecyl sulfate and 1.0 ml of an aqueous solution of thiobarbituric acid/trichloroacetic acid/hydrochloric acid, and the mixed solution was heated in a boiling water bath for 15 minutes. After ice-cooling, the solution was extracted with 1.0 ml of 1-butanol to prepare a sample for determining peroxide lipid as absorbance at a wavelength of 535 nm using a spectrophotometer "Model 320" (manufactured by Hitachi).
(§1) [formula] A1 : Absorbance when a test compound was added. A2 : Absorbance when a test compound was not added.
A3 : Absorbance when a test compound was not added and UV rays were not irradiated.

hydroxyl radical [2] = assay: Inhibitory effects on hydroxyl radical formation (2) (iron (II)/hydrogen peroxide, DMPO, ESR); assay type: biochemical; conditions: 306 μM test compound; 306 μM iron (II) sulphate; 75 mM DMPO; 306 μM hydrogen peroxide; ESR within 40 seconds
Method: Test for Inhibitory Effects on Hydroxyl Radical Formation (2)
To 75 μl of a solution of each of the test compounds shown in Table 9 below in 0.1M phosphate buffer (hereinafter referred to as "PBS-3") were successively added 75 μl of an aqueous solution of iron (II) sulphate, 20 μl of an aqueous solution of 5,5-dimethyl-1-pyrroline-N-oxide "DMPO" (manufactured by Dojin Chemical) and 75 μl of an aqueous solution of hydrogen peroxide. […] If test compounds were not soluble in PBS-3 alone, an aqueous sodium hydroxide solution or N,N-dimethyl formamide was added.
This solution was subjected to determination for the hydroxy radical immediately (within 40 seconds), using an electron spin resonance (ESR) meter "JES-FR80S" (manufactured by Nippon Denshi).
[formula] E1 : Signal magnitude when a test compound was added. E2 : Signal magnitude when a test compound was not added.

hydroxyl radical [3] = assay: Inhibitory effects on hydroxyl radical formation (1) (xanthine/xanthine oxidase, deoxyribose); assay type: biochemical; conditions: 360 μM test compound; 36 μM ammonium iron (III) sulphate; xanthine oxidase 0.7 unit/ml; 37° C., 15 minutes; pH 7.4 to 7.8
Method: Test for Inhibitory Effects on Hydroxyl Radical Formation (1)
The test was carried out in accordance with the method described in FEBS Letters, Vol. 128, page 347, 1981. Namely, to 1.1 ml of a solution of 54 mM sodium chloride in 9 mM phosphate buffer (hereinafter referred to as "PBS-I") were successively added 140 μl of a solution of each of the test compounds shown in Table 6 below in PBS-1, […] of a 1 mM solution of ammonium iron (III) sulphate in hydrochloric acid, 140 μl of a solution of xanthine (manufactured by Tokyo Kasei Co.) in PBS-1, 14 μl a solution of deoxyribose (Sigma) in PBS-1 and xanthine oxidase (Sigma). The final concentrations of the test compounds, ammonium iron (III) sulphate, xanthine, deoxyribose and xanthine oxidase were adjusted to be 360 μM, 36 μM, 70 μM, 700 μM and 0.7 unit/ml, respectively. If test compounds were not soluble in PBS-1 alone, aqueous sodium hydroxide solution or DMSO was added. The pH of the solution was adjusted to 7.4 to 7.8.
. The percent inhibition of the hydroxyl radical was calculated from the following equation (2) and the results are shown in Table 6. [formula] F1 : Intensity of fluorescence when a test compound was added. F2 : Intensity of fluorescence when a test compound was added but deoxyribose was not added.
F3 : Intensity of fluorescence when a test compound was not added.
F4 : Intensity of fluorescence when neither test compound nor deoxyribose was added.

[4] = test system: lipid peroxidation in murine brain homogenate; assay: Inhibitory effects on metal ion-induced lipid peroxidation (murine brain homogenate); assay type: biochemical, murine (C57 black mouse); conditions: 1 mM test compound; 100 μM ammonium iron (II) sulphate; 37° C., 30 minutes; pH 7.2 to 7.8
Method: Test for Inhibitory Effects on Metal Ion-induced Lipid Peroxidation
(§2) The test was carried out according to the method described in Method in Enzymol., Vol. 52, page 302, 1978. A C57 black mouse was killed by cervical dislocation, and the whole brain extracted from the dissected head was washed with 20 mM phosphate buffer (hereinafter referred to as "PBS-2"). Then, the brain was added with PBS-2 in an amount of 19 times its wet weight, and the mixture was disrupted and homogenized with a homogenizer "Polytron" (manufactured by Kinematica). The thus prepared 5% solution of the murine brain homogenate in PBS-2 was diluted 1:5 with fresh PBS-2. To 800 μl of the resulting 1% solution of the murine brain homogenate in PBS-2 (protein content: 0.8 to 1.0 mg/ml) were successively added 100 μl of a PBS-2 solution of each of the test compounds shown in Table 7 below and 100 μl of an aqueous solution of ammonium iron (II) sulphate. The final concentration of the test compounds and ammonium iron (II) sulphate were adjusted to be 1 mM and 100 μM, respectively. If test compounds were not soluble in PBS-2 alone, an aqueous sodium hydroxide solution or DMSO was added. The pH of the solution was adjusted to 7.2 to 7.8.
The solution after heated at 37° C. for 30 minutes was added with 2.0 ml of an aqueous solution of thiobarbituric acid/trichloroacetic acid/hydrochloric acid, and the mixture was heated in a boiling water bath for 15 minutes. After ice-cooling, the solution was extracted with 1.0 ml of 1-butanol to prepare a sample for determining the peroxide lipid in the same way as described in Test Example 1.
as §1
A3 : Absorbance when a test compound was not added and heating at 37° C. for 30 minutes was not carried out.

[5] = test system: lipid peroxidation in murine brain homogenate; assay: Inhibitory effects on lipid peroxidation (murine brain homogenate); assay type: biochemical, murine (C57 black mouse); conditions: 30 μM test compound; no added iron; 37° C., 60 minutes; pH 7.2 to 7.8
Method: as §2
Test for Inhibitory Effects on Lipid Peroxidation
To 900 μl of a 5% solution of the murine brain homogenate in PBS-2 prepared in the same way as described in Test Example 3 was added 100 μl of a PBS-2 solution of each of the test compounds shown in Table 8 below. The final concentration of the test compounds was adjusted to be 30 μM. If test compounds were not soluble in PBS-2 alone, an aqueous solution of sodium hydroxide or DMSO was added. The pH of the solution was adjusted to 7.2 to 7.8.
The solution after heated at 37° C. for 60 minutes was added with 1.0 ml of an aqeuous solution of thiobarbituric acid/trichloroacetic acid/hydrochloric acid, and the mixture was heated in a boiling water bath for 15 minutes. After ice-cooling, the solution was extracted with 2.0 ml of 1-butanol to prepare a sample for determining the lipid peroxide in the same way as described in Test Example 1. […] [formula] A4 : Absorbance when a test compound was added. A5 : Absorbance when a test compound was not added.
A6 : Abosrbance when a test compound was not added and heating at 37° C. for […] was not carried out.

O=C(O)C(CO)N=Cc1c(O)ccc2ccccc12 (stereo not shown) [Synthesis Example 28]
Wavelength (nm) of maximum absorption (UV absorptive activities): 307 nm
Maximum molar extinction coefficient (UV absorptive activities; UVA and UVB regions): 10,000
% Inhibition of UV-induced lipid peroxidation [1]: 20%
% Inhibition of hydroxy radicals (hydroxyl radical [2]): 56%
% Inhibition of hydroxyl radical (hydroxyl radical [3]): 19%
% Inhibition of metal ion-induced lipid peroxidation [4]: 80%
% Inhibition of lipid peroxidation [5]: 70%
